Our source for the IMQ-induced ear swelling and body weight values is US12194048B2, “Use of pyrrolopyridine derivatives for preventing or treating inflammatory diseases” (VORONOI CO., LTD., priority 2020, dated 2025).

Series [1] has as its system IMQ-induced psoriasis-like skin inflammation model. The series can be described thus: Oral treatment in imiquimod (IMQ)-induced psoriasis-like skin inflammation. The series is classed as in vivo, BALB/c mice. How it is done:
The positive control, methotrexate at 2 mg/kg and tofacitinib at 5 mg/kg were administered by oral gavage twice (BID) daily during the same study period.
Fifteen (15) mg Imiquimod (IMQ) cream (5%) (Aldara; 3M Pharmaceuticals) was topically (TOP) administered once daily (QD) on the right ear one hour after treatment from Day 1 to Day 9 for 9 consecutive days, translating to a daily dose of 0.75 mg of the active compound. Ear swelling was measured on Day 0 and thereafter 30 min before dosing on Days 2, 4, 6 and 8. On Day 10, ear swelling was measured 24 hours after the last dosing.

For series [2] the test system is unchanged. The experiment in a line: Topical treatment in imiquimod (IMQ)-induced psoriasis-like skin inflammation. It counts as in vivo, BALB/c mice. The note with it: 0.15% topical; during the study period. As for the experimental part: Dexamethasone (0.15%), the reference compound, was applied topically at 20 μL/mouse on the right ear once daily (QD) during the same study period.
Fifteen (15) mg imiquimod (IMQ) cream (5%) (Aldara; 3M Pharmaceuticals) was topically administered once daily (QD) on the right ear one hour after treatment from Day 1 to Day 9 for 9 consecutive days, translating to a daily dose of 0.75 mg of the active compound.
Ear swelling was measured on Day 0 and thereafter 30 min before dosing on Days 2, 4, 6 and 8. On Day 10, ear swelling was measured 24 hours after the last dosing.

On to `C[C@@H]1CCN(C(=O)CC#N)C[C@@H]1N(C)c1ncnc2[nH]ccc12` [Tofacitinib, tofacitinib], for which the IMQ-induced ear swelling result in series [1] (5 mg/kg oral gavage BID, Day 8 to Day 10) is given as “significant (p<0.05) inhibition”.
As for `C[C@@H]1C[C@H]2[C@@H]3CCC4=CC(=O)C=C[C@]4(C)[C@@]3(F)[C@@H](O)C[C@]2(C)[C@@]1(O)C(=O)CO` [dexamethasone, reference compound], the body weight entry in series [2] is on record as “significant (p<0.05) decrease”.
For the compound `CN(Cc1cnc2nc(N)nc(N)c2n1)c1ccc(C(=O)N[C@@H](CCC(=O)O)C(=O)O)cc1` [methotrexate], the body weight entry in series [1] (2 mg/kg PO BID×9 days, Day 9 to Day 10) is given as “significantly decreased”. Besides, the IMQ-induced ear swelling entry in series [1] (2 mg/kg oral gavage BID, Day 8, vs vehicle group) is “significant (p<0.05) effect”.
